According to PMC5423977, “Safety, pharmacokinetics, and pharmacodynamics of BMS-986142, a novel reversible BTK inhibitor, in healthy participants” (European Journal of Clinical Pharmacology, 2017):

Assay: Safety and tolerability (adverse events), Study 1 SAD in healthy participants
Type: in vivo, human
Conditions: n = 6

For `Cc1c(-c2c(F)cc(C(N)=O)c3[nH]c4c(c23)CC[C@H](C(C)(C)O)C4)cccc1-n1c(=O)c2cccc(F)c2n(C)c1=O` [BMS-986142, 6-fluoro-5-(R)-(3-(S)-(8-fluoro-1-methyl-2,4-dioxo-1,2-dihydroquinazolin-3(4H)-yl)-2-methylphenyl)-2-(S)-(2-hydroxypropan-2-yl)-2,3,4,9-tetrahydro-1H-carbazole-8-carboxamide], the “AE SOC: Gastrointestinal Disorders” value (SAD 5 mg) was 0 n (%), the “AE SOC: General disorders and administration site conditions” value (SAD 5 mg) was 0 n (%) and the “AE SOC: Infections and infestations” value (SAD 5 mg) was 0 n (%). For the same molecule, the “AE SOC: Injury, poisoning and procedural complications” value (“AE SOC: Injury” below) (SAD 5 mg) was 0 n (%), the “AE SOC: Musculoskeletal and connective tissue disorders” value (SAD 5 mg) was 0 n (%) and the “AE SOC: Nervous system disorders” value (SAD 5 mg) was 0 n (%). The “AE SOC: Renal and urinary disorders” value (SAD 5 mg) was 0 n (%), the “AE SOC: Respiratory, thoracic and mediastinal disorders” value (“AE SOC: Respiratory” for short) (SAD 5 mg) was 0 n (%) and the “AE: Aphthous stomatitis” value (SAD 5 mg) was 0 n (%). The “AE: Chest pain” value (SAD 5 mg) was 0 n (%), the “AE: Contusion” value (SAD 5 mg) was 0 n (%) and the “AE: Cough” value (SAD 5 mg) was 0 n (%). The “AE: Diarrhoea” value (SAD 5 mg) was 0 n (%), the “AE: Dizziness” value (SAD 5 mg) was 0 n (%) and the “AE: Headache” value (SAD 5 mg) was 0 n (%). The “AE: Lip Dry” value (SAD 5 mg) was 0 n (%), the “AE: Muscle spasms” value (SAD 5 mg) was 0 n (%) and the “AE: Nausea” value (SAD 5 mg) was 0 n (%). For the same molecule, the “AE: Paraesthesia” value (SAD 5 mg) was 0 n (%), the “AE: Polyuria” value (SAD 5 mg) was 0 n (%) and the “AE: Syncope” value (SAD 5 mg) was 0 n (%). For the same molecule, the “AE: Tension headache” value (SAD 5 mg) was 0 n (%), the “AE: Thermal burn” value (SAD 5 mg) was 0 n (%) and the “AE: Toothache” value (SAD 5 mg) was 0 n (%). The “AE: Upper respiratory tract infection” value (SAD 5 mg) was 0 n (%), the “AE: Vomiting” value (SAD 5 mg) was 0 n (%) and the “Total participants with an event” value (SAD 5 mg) was 0 n (%). For the same molecule, the “AE SOC: Gastrointestinal Disorders” value (SAD 15 mg) was 1 (16.7) n (%), the “AE SOC: General disorders and administration site conditions” value (SAD 15 mg) was 0 n (%) and the “AE SOC: Infections and infestations” value (SAD 15 mg) was 0 n (%). For the same molecule, the “AE SOC: Injury” value (SAD 15 mg) was 0 n (%), the “AE SOC: Musculoskeletal and connective tissue disorders” value (SAD 15 mg) was 0 n (%) and the “AE SOC: Nervous system disorders” value (SAD 15 mg) was 0 n (%). The “AE SOC: Renal and urinary disorders” value (SAD 15 mg) was 0 n (%), the “AE SOC: Respiratory” value (SAD 15 mg) was 0 n (%) and the “AE: Aphthous stomatitis” value (SAD 15 mg) was 1 (16.7) n (%). The “AE: Chest pain” value (SAD 15 mg) was 0 n (%), the “AE: Contusion” value (SAD 15 mg) was 0 n (%) and the “AE: Cough” value (SAD 15 mg) was 0 n (%). For the same molecule, the “AE: Diarrhoea” value (SAD 15 mg) was 0 n (%), the “AE: Dizziness” value (SAD 15 mg) was 0 n (%) and the “AE: Headache” value (SAD 15 mg) was 0 n (%). For the same molecule, the “AE: Lip Dry” value (SAD 15 mg) was 0 n (%), the “AE: Muscle spasms” value (SAD 15 mg) was 0 n (%) and the “AE: Nausea” value (SAD 15 mg) was 0 n (%). The “AE: Paraesthesia” value (SAD 15 mg) was 0 n (%), the “AE: Polyuria” value (SAD 15 mg) was 0 n (%) and the “AE: Syncope” value (SAD 15 mg) was 0 n (%). The “AE: Tension headache” value (SAD 15 mg) was 0 n (%), the “AE: Thermal burn” value (SAD 15 mg) was 0 n (%) and the “AE: Toothache” value (SAD 15 mg) was 0 n (%). The “AE: Upper respiratory tract infection” value (SAD 15 mg) was 0 n (%), the “AE: Vomiting” value (SAD 15 mg) was 0 n (%) and the “Total participants with an event” value (SAD 15 mg) was 1 (16.7) n (%). The “AE SOC: Gastrointestinal Disorders” value (SAD 50 mg) was 0 n (%), the “AE SOC: General disorders and administration site conditions” value (SAD 50 mg) was 0 n (%) and the “AE SOC: Infections and infestations” value (SAD 50 mg) was 1 (16.7) n (%). The “AE SOC: Injury” value (SAD 50 mg) was 1 (16.7) n (%), the “AE SOC: Musculoskeletal and connective tissue disorders” value (SAD 50 mg) was 1 (16.7) n (%) and the “AE SOC: Nervous system disorders” value (SAD 50 mg) was 2 (33.3) n (%). For the same molecule, the “AE SOC: Renal and urinary disorders” value (SAD 50 mg) was 0 n (%), the “AE SOC: Respiratory” value (SAD 50 mg) was 0 n (%) and the “AE: Aphthous stomatitis” value (SAD 50 mg) was 0 n (%). The “AE: Chest pain” value (SAD 50 mg) was 0 n (%), the “AE: Contusion” value (SAD 50 mg) was 1 (16.7) n (%) and the “AE: Cough” value (SAD 50 mg) was 0 n (%). The “AE: Diarrhoea” value (SAD 50 mg) was 0 n (%), the “AE: Dizziness” value (SAD 50 mg) was 0 n (%) and the “AE: Headache” value (SAD 50 mg) was 2 (33.3) n (%). For the same molecule, the “AE: Lip Dry” value (SAD 50 mg) was 0 n (%), the “AE: Muscle spasms” value (SAD 50 mg) was 1 (16.7) n (%) and the “AE: Nausea” value (SAD 50 mg) was 0 n (%). The “AE: Paraesthesia” value (SAD 50 mg) was 0 n (%), the “AE: Polyuria” value (SAD 50 mg) was 0 n (%) and the “AE: Syncope” value (SAD 50 mg) was 0 n (%). The “AE: Tension headache” value (SAD 50 mg) was 0 n (%), the “AE: Thermal burn” value (SAD 50 mg) was 1 (16.7) n (%) and the “AE: Toothache” value (SAD 50 mg) was 0 n (%). For the same molecule, the “AE: Upper respiratory tract infection” value (SAD 50 mg) was 1 (16.7) n (%), the “AE: Vomiting” value (SAD 50 mg) was 0 n (%) and the “Total participants with an event” value (SAD 50 mg) was 2 (33.3) n (%). For the same molecule, the “AE SOC: Gastrointestinal Disorders” value (SAD 100 mg) was 1 (16.7) n (%), the “AE SOC: General disorders and administration site conditions” value (SAD 100 mg) was 0 n (%) and the “AE SOC: Infections and infestations” value (SAD 100 mg) was 0 n (%). For the same molecule, the “AE SOC: Injury” value (SAD 100 mg) was 0 n (%), the “AE SOC: Musculoskeletal and connective tissue disorders” value (SAD 100 mg) was 0 n (%) and the “AE SOC: Nervous system disorders” value (SAD 100 mg) was 1 (16.7) n (%). The “AE SOC: Renal and urinary disorders” value (SAD 100 mg) was 1 (16.7) n (%), the “AE SOC: Respiratory” value (SAD 100 mg) was 0 n (%) and the “AE: Aphthous stomatitis” value (SAD 100 mg) was 0 n (%). The “AE: Chest pain” value (SAD 100 mg) was 0 n (%), the “AE: Contusion” value (SAD 100 mg) was 0 n (%) and the “AE: Cough” value (SAD 100 mg) was 0 n (%). For the same molecule, the “AE: Diarrhoea” value (SAD 100 mg) was 0 n (%), the “AE: Dizziness” value (SAD 100 mg) was 0 n (%) and the “AE: Headache” value (SAD 100 mg) was 0 n (%). The “AE: Lip Dry” value (SAD 100 mg) was 0 n (%), the “AE: Muscle spasms” value (SAD 100 mg) was 0 n (%) and the “AE: Nausea” value (SAD 100 mg) was 0 n (%). For the same molecule, the “AE: Paraesthesia” value (SAD 100 mg) was 0 n (%).
